Values after ≈ are worked out from the molar mass of the structure shown.

The conditions of this data set: buffer; pH 7.4; 200.0 µM.
For `Cc1nonc1CC(=O)N1CCCC(C(=O)c2ccc(Cl)cc2)C1` (stereo unspecified), the solubility (kinetic) was 48.2 µg/mL (≈ 139 µM).

`CCOC(=O)c1sc(-c2ccccn2)nc1C` registered a kinetic solubility of 23.4 µg/mL (≈ 94.2 µM).

Regarding `CCCCCC1CCC(C(=O)NCCN2CCOCC2)CC1` (stereo unspecified), the kinetic solubility was determined as 35.6 µg/mL (≈ 115 µM).

Compound `Cc1nc(SCc2cccnc2)[nH]c(=O)c1C` returned a solubility (kinetic) greater than 37.1 µg/mL.

`Cc1cc(C)nc(SCC(=O)N2CCc3ccccc32)n1` returned a kinetic solubility of 3.4 µg/mL (≈ 11.4 µM).

As for `ClCc1nc2ccccc2c2ccccc12`, the solubility (kinetic) came to 3.2 µg/mL (≈ 14.1 µM).

Regarding `COc1ccc(-c2nnc(SCC(=O)NC3CC3)o2)cc1`, the solubility (kinetic) was greater than 45.8 µg/mL.

On to `Clc1ccc(CN2CCN(c3ncccn3)CC2)cc1`, for which the kinetic solubility is 29.6 µg/mL (≈ 102 µM).

`Cc1onc(-c2ccccc2)c1C(=O)N(C)CCc1ccccn1` showed a solubility (kinetic) greater than 48.2 µg/mL.

In turn, `CC1(c2ccccc2)CC(C)(C)N(C(N)=O)c2ccccc21` (stereo unspecified) yielded a solubility (kinetic) of 40.9 µg/mL (≈ 139 µM).

For the compound `COc1ccc(OC)c(-c2nc3ccccc3nc2-c2ccccc2)c1`, the solubility (kinetic) came out at 0.6 µg/mL (≈ 1.75 µM).

With `COc1ccc(/C=C/C(=O)OCC(=O)NC(=O)NC(C)(C)C)cc1`, the kinetic solubility was less than 0.4 µg/mL.

In the case of `Cl.Fc1ccc(Nc2nc(NCc3ccco3)c3ccccc3n2)cc1`, the kinetic solubility is 2.1 µg/mL.

The compound `COCc1c(C(=O)N2CCN(c3ccccc3C)CC2)oc2ccccc12` gave a kinetic solubility of 9.2 µg/mL (≈ 25.2 µM).

For `COn1c(-c2ccccc2)c(C=O)c2ccccc21`, the kinetic solubility came out at 2.4 µg/mL (≈ 9.55 µM).

`Cc1ccc(S(=O)(=O)N2C(=O)c3cccc4cccc2c34)cc1`: the solubility (kinetic) came to 3.7 µg/mL (≈ 11.4 µM).

`O=C(CSc1nc(C2CC2)nc2ccccc12)N1CCCCC1`: the solubility (kinetic) amounted to 46.9 µg/mL (≈ 143 µM).

For the compound `COc1ccc2nc(NCc3cccnc3)sc2c1`, the solubility (kinetic) is greater than 40.7 µg/mL.

On to `N/C(=N\OC(=O)CCN1C(=O)c2ccccc2C1=O)c1ccccn1`, for which the kinetic solubility stood at 49.6 µg/mL (≈ 147 µM).

The compound `Cc1c(Cl)cn2c(=O)cc(CN3CCN(c4ccc(F)cc4)CC3)nc2c1Cl` displayed a solubility (kinetic) of 5 µg/mL (≈ 11.9 µM).

Turning to `COC(=O)c1ccc(OCC(=O)N2CCCc3ccccc32)cc1`, the solubility (kinetic) was determined as 45 µg/mL (≈ 138 µM).

On to `Cc1cccc(NC(=O)C2CCCN2C(=O)NC2CCCCC2)c1` (stereo unspecified), for which the kinetic solubility stood at 3.1 µg/mL (≈ 9.41 µM).

Consider `COc1ccc(CSCC(=O)NCCC(C)C)cc1`, for which the solubility (kinetic) was greater than 42.2 µg/mL.

The compound `Cc1ccc(C(=O)Nc2cccc3[nH]c(C(F)(F)F)nc23)cc1` had a solubility (kinetic) of 3.3 µg/mL (≈ 10.3 µM).

`CCNC(=S)Nc1sc2c(c1C#N)CCC(C)C2` (stereo unspecified): the kinetic solubility was found to be 1.1 µg/mL (≈ 3.94 µM).

In turn, `CCCCC(=O)Nc1ccccc1C(C)C` came in with a kinetic solubility of 23.3 µg/mL (≈ 106 µM).

In turn, `C=CCN1CC[C@]23c4c5ccc(O)c4O[C@H]2C(=O)CC[C@@]3(O)[C@H]1C5.Cl` registered a solubility (kinetic) greater than 54.6 µg/mL.

In the case of `Cc1cc(Nc2ccc(Br)cc2)nc2ccccc12`, the solubility (kinetic) is less than 0.3 µg/mL.

The compound `CCN(CC)CCOCCOc1ccc(Cl)c2ccccc12` showed a kinetic solubility of 32.2 µg/mL (≈ 100 µM).

As for `CC(C)=CCN1CCN(CC#Cc2ccccc2)CC1CCO` (stereo unspecified), the kinetic solubility was 37.9 µg/mL (≈ 121 µM).

Consider `Cc1nc(C)c(/C(O)=C\c2nc3ccc([N+](=O)[O-])cc3oc2=O)o1`, for which the kinetic solubility is greater than 49.4 µg/mL.

The compound `CCN(C(=O)COC(=O)c1cnccn1)c1cccc2ccccc12` showed a solubility (kinetic) greater than 50.3 µg/mL.

Compound `Cc1cccc(NC(=O)/C(C#N)=C/c2ccc[nH]2)c1C` gave a solubility (kinetic) of 2.1 µg/mL (≈ 7.92 µM).

In the case of `Cc1cnc(C(=O)NC(Cc2ccccc2)c2ccccc2)cn1` (stereo unspecified), the solubility (kinetic) was found to be 0.9 µg/mL (≈ 2.84 µM).

With `C/C=C/c1ccc(OCC(=O)NCc2ccccc2OC)c(OC)c1`, the solubility (kinetic) is 2.9 µg/mL (≈ 8.49 µM).

Regarding `Cc1cc(C(=O)NN=C2CCCC2)c2ccccc2n1`, the solubility (kinetic) was greater than 40.1 µg/mL.

`CC(C)Cc1ccc(C(C)C(N)=NCCc2ccccc2)cc1.Cl` (stereo unspecified): the solubility (kinetic) was found to be 51.3 µg/mL.

With `COC(=O)c1cc(NC(=O)COC(=O)CCc2nc3ccccc3c(=O)[nH]2)cc(C(=O)OC)c1`, the solubility (kinetic) came to 18 µg/mL (≈ 38.5 µM).

`COCc1c(C(=O)OCC(=O)c2ccc[nH]2)oc2ccccc12` registered a solubility (kinetic) of 11.1 µg/mL (≈ 35.4 µM).

`Cc1ccnc(N2CCCC(C(=O)Nc3cccc(C)c3C)C2)n1` (stereo unspecified) displayed a solubility (kinetic) of 0.6 µg/mL (≈ 1.85 µM).

For `Cc1cccc(NC(=O)NCC(c2ccco2)N2CCCCC2)c1` (stereo unspecified), the solubility (kinetic) was greater than 49.1 µg/mL.

Turning to `COC(=O)/C(C#N)=C/c1c[nH]c2ccccc12`, the kinetic solubility was 7.1 µg/mL (≈ 31.4 µM).

Regarding `O=C(CCS(=O)(=O)c1ccccc1)NCc1ccccc1`, the kinetic solubility was greater than 45.5 µg/mL.

On to `CCOc1ccc2oc(-c3ccccc3)c(C(N)=O)c2c1`, for which the kinetic solubility is less than 0.6 µg/mL.

For the compound `COC(=O)CC(NC(=O)C1CC1)c1ccc2c(c1)OCO2` (stereo unspecified), the solubility (kinetic) is greater than 43.7 µg/mL.

For `CC1CCc2[nH]c3ccc(C(=O)NCCCOC(C)C)cc3c2C1` (stereo unspecified), the solubility (kinetic) is greater than 49.3 µg/mL.

In turn, `Fc1cccc(CSc2nc3ncc(Cl)cc3[nH]2)c1` displayed a solubility (kinetic) of 2.6 µg/mL (≈ 8.85 µM).

For `Cc1ccc(OCC(=O)NCCCNC(=O)c2ccccn2)cc1C`, the solubility (kinetic) worked out at 45.4 µg/mL (≈ 133 µM).

With `CCN1CC(CN(C)Cc2nc(-c3ccc(Cl)cc3)no2)CC1=O` (stereo unspecified), the kinetic solubility was greater than 52.3 µg/mL.

Regarding `CCC(CC)C(=O)c1c[nH]c(C(=O)NCc2ccncc2)c1`, the kinetic solubility turned out to be 44.2 µg/mL (≈ 148 µM).

In the case of `COC(=O)CCCN=C1SCCN1Cc1ccccc1`, the kinetic solubility was greater than 43.9 µg/mL.

Broadly, the kinetic solubility is solubility judged after dilution from a stock solution rather than from solid.

The values above are taken from PubChem BioAssay AID1996.
